Data: ChEMBL document CHEMBL1142074, “In vitro activities of cloxyquin (5-chloroquinolin-8-ol) against Mycobacterium tuberculosis” (2007)

Tests used:
Assay type in all cases: functional
[1] = tested on: Mycobacterium tuberculosis; assay: Antimycobacterial activity against cycloserine-resistant Mycobacterium tuberculosis H37Rv ATCC 35826 by microplate alamar blue assay
[2] = tested on: Mycobacterium tuberculosis; assay: Antimycobacterial activity against kanamycin-resistant Mycobacterium tuberculosis H37Rv ATCC 35827 by microplate alamar blue assay
[3] = tested on: Mycobacterium tuberculosis; assay: Antimycobacterial activity against pyrazinamide-resistant Mycobacterium tuberculosis H37Rv ATCC 35828 by microplate alamar blue assay
[4] = tested on: Mycobacterium tuberculosis; assay: Antimycobacterial activity against ethionamide-resistant Mycobacterium tuberculosis H37Rv ATCC 35830 by microplate alamar blue assay
[5] = tested on: Mycobacterium tuberculosis; assay: Antimycobacterial activity against ethambutol-resistant Mycobacterium tuberculosis H37Rv ATCC 35837 by microplate alamar blue assay
[6] = tested on: Mycobacterium tuberculosis; assay: Antimycobacterial activity against thiacetazone-resistant Mycobacterium tuberculosis H37Rv ATCC 35829 by microplate alamar blue assay

Measured: MIC

Oc1ccc(Cl)c2cccnc12 [CLOXYQUIN]
0.125 µg/mL: all assays above
